A value given as a limit tells only on which side of the number the result lay.

The target of assay [1] is T1, NaV1.5 (Homo sapiens, UniProt Q14524).
T1 construct: expressed in transfected cells; host or cells: HEK293
The assay is described as follows: Patchliner electrophysiological in-vitro assay, NaV1.5. Format: cell-based. The conditions noted are these: Patchliner patch clamp, HEK293 cells. Here is the method:
(§1) In vitro assays were performed in recombinant cell line that stably express a heterotrimeric protein of interest from an introduced nucleic acid encoding the alpha subunit (hNav1.7, SCN9A), the beta subunit (SCNB1) and the beta subunit (SCNB2). The cell line was engineered using Human Embryonic Kidney 293 cells (HEK293) as host background. Additional cell lines stably expressing recombinant human NaVs (e.g., NaV1.1, NaV1.2, NaV1.3, NaV1.4, NaV1.5, NaV1.6, NaV1.7 or NaV1.8) alpha subunit alone or in combination with various beta subunits in Chinese Hamster Ovary (CHO) or HEK293 cells as a host background can also be used in in vitro assays.
The recording of sodium current from stable HEK293 cell lines expressing NaV1.7 or NaV1.5 or CHO cell lines expressing NaV1.1, NaV1.2, NaV1.3, NaV1.4, NaV1.6 or NaV1.8 was done on a Patchliner® instrument, Nanion Technologies. The Patchliner® is a fully automated bench-top patch clamp platform and can record simultaneously from up to eight single cells with GΩ seals.
For patch-clamp experiments, cells were grown under standard culturing conditions in Dulbecco's Modified Eagles medium supplemented with 10% fetal bovine serum, glutamine and HEPES. Cells were harvested and kept in suspension for up to 4 hours with no significant change in quality or ability to patch. Whole cell patch clamp recordings were conducted according to Nanion's standard procedure for the Patchliner®. Experiments were conducted at room temperature.
Voltage protocols were designed to establish: 1) peak current amplitude (Imax), 2) test potential (Vmax) and 3) half-inactivation potential (V1/2) for each of the eight individual cells. To determine V1/2, a standard steady-state inactivation protocol was executed using a series of fifteen 500 ms depolarizing pre-pulses in 10 mV increments (starting at −130 mV) and immediately followed by a 10 ms test pulse to Vmax. To estimate test compound affinity to the inactivated state of sodium channel (Ki), the holding potential for each cell was set automatically to the V1/2 calculated from a steady-state inactivation data. The current was activated with the following voltage protocol: holding at V1/2 for 2-5 seconds, return to the −120 mV for 5-10 ms to relieve fast inactivation, stepping to test potential (Vmax) for 10-20 ms. This voltage protocol was repeated every 10 seconds to establish the baseline with 2-3 buffer additions followed by the test compound addition. The dose-dependent inhibition was analyzed using Nanion's Data Analysis Package.
In general terms: The patch-clamp technique gives a direct electrical read-out from membranes.

Assay [2] has as its target T2, NaV1.3 (Homo sapiens, UniProt Q9NY46). Description: Patchliner electrophysiological in-vitro assay, NaV1.3. Format: cell-based. On the set-up: expressed in transfected cells; host or cells: CHO. Conditions: Patchliner patch clamp, CHO cells; read-out: NaV 1.3 IC50. Here is the method: as §1
(§2) The recording of sodium current from stable HEK293 cell lines expressing NaV1.7 or NaV1.5 or CHO cell lines expressing NaV1.1, NaV1.2, NaV1.3, NaV1.4, NaV1.6 or NaV1.8 was done on a Patchliner® instrument, Nanion Technologies. […]
(§3) Voltage protocols were designed to establish: 1) peak current amplitude (Imax), 2) test potential (Vmax) and 3) half-inactivation potential (V1/2) for each of the eight individual cells. […] To estimate test compound affinity to the inactivated state of sodium channel (Ki), the holding potential for each cell was set automatically to the V1/2 calculated from a steady-state inactivation data. […] The dose-dependent inhibition was analyzed using Nanion's Data Analysis Package.

Assay [3] concerns the target T3, NaV1.1 (Homo sapiens, UniProt P35498).
T3 construct: expressed in transfected cells; host or cells: CHO
Description: Patchliner electrophysiological in-vitro assay, NaV1.1. Format: cell-based. Conditions: Patchliner patch clamp, CHO cells. Here is the method:
as §1, §2, §3

In assay [4] the target is T4, NaV1.8 (Homo sapiens, UniProt Q9Y5Y9).
T4 construct: expressed in transfected cells; host or cells: CHO
Description: Patchliner electrophysiological in-vitro assay, NaV1.8. Format: cell-based. Conditions: Patchliner patch clamp, CHO cells. Here is the method:
as §1, §2, §3

For assay [5], the target named is T5, NaV1.4 (Homo sapiens, UniProt P35499).
T5 construct: expressed in transfected cells; host or cells: CHO
Description: Patchliner electrophysiological in-vitro assay, NaV1.4. In kind it is cell-based. The conditions noted are these: Patchliner patch clamp, CHO cells. Here is the method:
as §1, §2, §3

The target of assay [6] is T6, NaV1.7 (Homo sapiens, UniProt Q15858).
T6 construct: expressed in transfected cells; host or cells: HEK293
The assay is described as follows: Patchliner electrophysiological in-vitro assay, NaV1.7. In kind it is cell-based. Conditions: Patchliner patch clamp, HEK293 cells, holding at V1/2. Here is the method:
as §1, §2, §3

Assay [7] concerns the target T7, hNaV1.7 (Homo sapiens, UniProt Q15858).
T7 construct: expressed in transfected cells; host or cells: HEK293
Description: FDSS membrane potential in-vitro assay. In kind it is cell-based. Conditions: HEK293 cells expressing hNaV1.7 α, β1 and β2, veratridine and scorpion venom stimulation, read-out: NaV1.7 IC50.

Assay [8] concerns the target T2, NaV1.3. The assay is described as follows: Assay similar to Patchliner assay using CHO or HEK293 cell lines expressing NaV1.3. In kind it is cell-based. On the set-up: expressed in transfected cells; host or cells: CHO or HEK293.
In assay [9] the test system is streptozotocin-induced diabetic rats. Description: Anti-diabetic effect in rat streptozotocin-induced model for diabetes. Format: in vivo, Sprague-Dawley rats. Conditions: STZ diabetic rats. Here is the method:
250-350 g male Sprague-Dawley rats from appropriate animal resources were used. Type I diabetes was induced by a single injection, (intraperitoneally, intravenously or intramuscularly) of 50-100 mg/kg of streptozotocin (STZ, Sigma Chemicals, St. Louis, Mo. or VWR) freshly dissolved in sodium citrate (0.01 M, pH 4.5). Sham animals were given either saline or same vehicle injection. Following a wait time of about two days, inducement of diabetes was confirmed in STZ-injected rats by measuring the plasma glucose concentrations in blood samples from the tail vein after a fast of 6 hours. The glucose level was assayed using a mini glucose monitor (kit for AlphaTRAK 2 meter, available from Abbott Laboratories). Screening for hyperglycemia in STZ-injected animals was done, with only animals with a final blood glucose level ≧300 mg/dl being selected for the study. Glucose levels in the sham animals remained normal. Other parameters (water intake, food intake, and bodyweight) were monitored before the treatment with a test compound and after the cessation of the treatment.
The baseline glucose levels, daily food and water intake and behavioral tests (von Frey, paw pressure and plantar tests) were measured for each animal once weekly for 28 weeks, and once every 2-4 weeks for an additional 28-30 weeks. At a selected week (started from week 6) for a compound test, diabetic rats were divided into two test groups: a vehicle control group and a test compound treated group (n=10 each group). A sham group (saline only without STZ i.p. injection, n=10) was added as a normal, non-diabetic control group. To minimize animal stress associated with repeated daily handling, the compound treated diabetic group of animals received the test compound (compound 49) at a daily dose of 60 mg/kg in their drinking water containing 2% PEG600 and 1% glycofurol (the test compound concentration in the drinking water was based on the individual animal's average daily water consumption as determined the pre-dosing period, which averaged 0.1-0.11 mg/ml). The vehicle control group received drinking water containing 2% PEG600 and 1% glycofurol without the test compound. The treatment continued for 9 days. On day 10 drinking water with test compound or vehicle (2% PEG600 and 1% glycofurol) was replaced with plain drinking water in all groups. The monitoring of glucose levels, food and water intake as well as behavior tests continued for additional 28-30 weeks.

Setting [10] is: 60 mg/kg/day in drinking water for 9 days, after treatment stopped, continues through week 52.

T1 sequence (Q14524 whole entry): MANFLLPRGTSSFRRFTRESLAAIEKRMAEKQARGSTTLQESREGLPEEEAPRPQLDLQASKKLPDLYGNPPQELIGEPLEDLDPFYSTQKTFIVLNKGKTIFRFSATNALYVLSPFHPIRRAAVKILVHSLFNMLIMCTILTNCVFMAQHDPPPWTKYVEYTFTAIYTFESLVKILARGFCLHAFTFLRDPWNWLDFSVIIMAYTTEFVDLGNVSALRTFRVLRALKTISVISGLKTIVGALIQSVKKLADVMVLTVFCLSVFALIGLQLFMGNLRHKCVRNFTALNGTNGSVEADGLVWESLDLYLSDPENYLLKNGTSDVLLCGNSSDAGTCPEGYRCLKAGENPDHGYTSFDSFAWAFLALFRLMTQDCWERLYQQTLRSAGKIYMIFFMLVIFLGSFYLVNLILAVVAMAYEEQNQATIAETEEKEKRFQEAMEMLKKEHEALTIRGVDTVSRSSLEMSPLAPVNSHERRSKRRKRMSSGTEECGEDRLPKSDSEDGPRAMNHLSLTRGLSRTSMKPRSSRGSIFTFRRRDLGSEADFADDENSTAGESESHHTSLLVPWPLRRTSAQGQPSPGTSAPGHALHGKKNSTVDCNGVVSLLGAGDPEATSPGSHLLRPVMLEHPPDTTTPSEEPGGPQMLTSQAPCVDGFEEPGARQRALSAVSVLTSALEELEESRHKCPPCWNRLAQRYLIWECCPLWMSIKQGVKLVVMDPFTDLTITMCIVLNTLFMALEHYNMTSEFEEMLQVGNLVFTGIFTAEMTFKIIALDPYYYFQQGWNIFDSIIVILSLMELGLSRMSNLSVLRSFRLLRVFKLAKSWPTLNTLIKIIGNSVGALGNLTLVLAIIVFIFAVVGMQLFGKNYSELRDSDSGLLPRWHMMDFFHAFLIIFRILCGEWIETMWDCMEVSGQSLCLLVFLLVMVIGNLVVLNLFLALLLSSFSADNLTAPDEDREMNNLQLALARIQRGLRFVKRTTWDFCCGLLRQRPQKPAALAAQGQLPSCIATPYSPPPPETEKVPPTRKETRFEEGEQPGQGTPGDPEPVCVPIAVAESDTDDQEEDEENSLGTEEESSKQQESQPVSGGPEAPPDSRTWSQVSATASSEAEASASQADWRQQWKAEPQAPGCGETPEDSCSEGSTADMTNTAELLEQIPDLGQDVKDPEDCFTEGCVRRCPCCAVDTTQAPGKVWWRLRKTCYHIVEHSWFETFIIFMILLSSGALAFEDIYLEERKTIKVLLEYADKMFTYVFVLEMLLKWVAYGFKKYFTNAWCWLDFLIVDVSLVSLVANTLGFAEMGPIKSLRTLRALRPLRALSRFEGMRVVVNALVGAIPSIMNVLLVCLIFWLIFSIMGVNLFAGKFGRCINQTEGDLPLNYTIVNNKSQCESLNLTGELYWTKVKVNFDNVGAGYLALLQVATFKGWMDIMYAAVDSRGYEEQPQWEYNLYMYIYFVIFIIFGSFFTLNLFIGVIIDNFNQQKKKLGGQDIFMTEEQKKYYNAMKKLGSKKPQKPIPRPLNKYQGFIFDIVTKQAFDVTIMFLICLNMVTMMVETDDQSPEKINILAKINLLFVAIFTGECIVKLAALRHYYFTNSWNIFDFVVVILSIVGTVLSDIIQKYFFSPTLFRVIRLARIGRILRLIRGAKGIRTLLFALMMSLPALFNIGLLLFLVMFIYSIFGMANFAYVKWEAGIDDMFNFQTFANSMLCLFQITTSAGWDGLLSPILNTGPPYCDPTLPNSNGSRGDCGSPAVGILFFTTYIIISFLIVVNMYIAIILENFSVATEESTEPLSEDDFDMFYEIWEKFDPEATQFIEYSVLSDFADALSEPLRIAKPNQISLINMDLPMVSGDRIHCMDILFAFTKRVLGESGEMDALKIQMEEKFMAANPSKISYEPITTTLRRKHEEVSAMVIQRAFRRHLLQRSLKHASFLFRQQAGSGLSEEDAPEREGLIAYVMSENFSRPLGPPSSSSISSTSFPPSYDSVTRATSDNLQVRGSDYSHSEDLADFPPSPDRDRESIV
T2 sequence (Q9NY46 whole entry): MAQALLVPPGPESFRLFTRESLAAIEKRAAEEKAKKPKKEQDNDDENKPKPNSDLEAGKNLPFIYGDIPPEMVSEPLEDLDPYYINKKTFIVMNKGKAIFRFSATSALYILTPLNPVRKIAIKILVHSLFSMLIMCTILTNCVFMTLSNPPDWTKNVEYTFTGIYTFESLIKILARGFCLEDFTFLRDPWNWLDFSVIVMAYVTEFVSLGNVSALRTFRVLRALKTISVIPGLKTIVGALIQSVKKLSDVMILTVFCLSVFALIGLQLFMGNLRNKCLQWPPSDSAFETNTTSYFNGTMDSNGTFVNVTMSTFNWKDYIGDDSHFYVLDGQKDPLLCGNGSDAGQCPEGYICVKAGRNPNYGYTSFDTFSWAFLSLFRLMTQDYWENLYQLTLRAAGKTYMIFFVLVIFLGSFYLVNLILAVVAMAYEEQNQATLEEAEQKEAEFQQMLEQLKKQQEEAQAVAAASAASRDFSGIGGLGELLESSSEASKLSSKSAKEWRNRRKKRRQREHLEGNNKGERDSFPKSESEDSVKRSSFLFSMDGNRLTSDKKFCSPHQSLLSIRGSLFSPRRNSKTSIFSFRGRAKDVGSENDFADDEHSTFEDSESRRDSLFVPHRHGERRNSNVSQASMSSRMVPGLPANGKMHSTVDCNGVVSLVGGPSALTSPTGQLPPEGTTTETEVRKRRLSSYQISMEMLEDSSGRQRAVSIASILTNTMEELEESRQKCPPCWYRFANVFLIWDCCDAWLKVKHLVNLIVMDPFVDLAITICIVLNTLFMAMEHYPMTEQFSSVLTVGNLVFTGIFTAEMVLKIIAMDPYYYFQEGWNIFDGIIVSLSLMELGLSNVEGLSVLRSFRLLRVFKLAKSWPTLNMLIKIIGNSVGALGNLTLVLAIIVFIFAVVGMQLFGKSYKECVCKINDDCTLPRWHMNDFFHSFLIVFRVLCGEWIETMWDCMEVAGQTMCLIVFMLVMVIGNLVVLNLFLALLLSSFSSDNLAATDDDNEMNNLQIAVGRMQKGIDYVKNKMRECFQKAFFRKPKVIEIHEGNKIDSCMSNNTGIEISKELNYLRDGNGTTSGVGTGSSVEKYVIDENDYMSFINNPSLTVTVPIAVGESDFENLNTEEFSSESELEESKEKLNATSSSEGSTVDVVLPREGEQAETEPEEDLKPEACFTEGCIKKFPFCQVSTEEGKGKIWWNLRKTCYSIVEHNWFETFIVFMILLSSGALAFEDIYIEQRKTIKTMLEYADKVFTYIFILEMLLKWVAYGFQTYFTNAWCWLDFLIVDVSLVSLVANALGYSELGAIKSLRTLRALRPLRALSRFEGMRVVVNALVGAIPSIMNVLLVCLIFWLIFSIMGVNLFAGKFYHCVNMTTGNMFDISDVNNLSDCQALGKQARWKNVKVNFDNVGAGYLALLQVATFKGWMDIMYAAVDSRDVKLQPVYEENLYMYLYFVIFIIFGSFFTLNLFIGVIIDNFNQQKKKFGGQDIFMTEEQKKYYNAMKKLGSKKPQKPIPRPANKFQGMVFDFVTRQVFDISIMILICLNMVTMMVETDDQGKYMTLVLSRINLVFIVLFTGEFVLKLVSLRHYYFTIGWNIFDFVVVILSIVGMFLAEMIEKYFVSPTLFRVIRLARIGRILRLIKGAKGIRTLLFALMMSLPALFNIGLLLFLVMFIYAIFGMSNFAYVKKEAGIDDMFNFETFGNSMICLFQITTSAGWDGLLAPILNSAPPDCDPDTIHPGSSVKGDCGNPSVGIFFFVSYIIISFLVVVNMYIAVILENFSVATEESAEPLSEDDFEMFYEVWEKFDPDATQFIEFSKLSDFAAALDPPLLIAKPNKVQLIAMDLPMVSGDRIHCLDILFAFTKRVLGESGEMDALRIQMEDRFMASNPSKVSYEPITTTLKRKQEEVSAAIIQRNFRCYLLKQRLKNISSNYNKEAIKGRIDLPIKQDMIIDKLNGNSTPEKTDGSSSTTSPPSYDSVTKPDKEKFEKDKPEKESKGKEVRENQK

In the case of `O=C(O)CCNCCCc1cc(Cl)ccc1Oc1cc(F)c(S(=O)(=O)Nc2nccs2)cc1F` [Compound 43, 3-((3-(5-chloro-2-(2,5-difluoro-4-(N-(thiazol-2-yl)sulfamoyl)phenoxy)phenyl)propyl)amino)propanoic acid], in [1], the IC50 was more than 10 µM.
Same read-out and setting: under `CS(=O)(=O)CCNCCCc1cc(Cl)ccc1Oc1cc(F)c(S(=O)(=O)Nc2nccs2)cc1Cl` [Compound 59, 5-chloro-4-(4-chloro-2-(3-((2-(methylsulfonyl)ethyl)amino)propyl)phenoxy)-2-fluoro-N-(thiazol-2-yl)benzenesulfonamide] stands more than 10 µM; under `C=CCN(CCCc1cc(Cl)ccc1Oc1cc(F)c(S(=O)(=O)Nc2nccs2)cc1Cl)CC(=O)O` [Compound 62, 2-(allyl(3-(5-chloro-2-(2-chloro-5-fluoro-4-(N-(thiazol-2-yl)sulfamoyl)phenoxy)phenyl)propyl)amino)acetic acid], more than 10 µM.
Consider `O=C(O)CCNC(=O)c1cc(-c2cc(Cl)ccc2Oc2cc(F)c(S(=O)(=O)Nc3ncns3)cc2Cl)ccn1` [Compound 1, 3-(4-(2-(4-(N-(1,2,4-thiadiazol-5-yl)sulfamoyl)-2-chloro-5-fluorophenoxy)-5-chlorophenyl)picolinamido)propanoic acid], for which the IC50 is more than 10 µM in assay [2], more than 10 µM in [3], more than 10 µM in assay [4] and more than 3 µM in assay [5].
On to `C#CCN(CCCc1cc(Cl)ccc1Oc1cc(F)c(S(=O)(=O)Nc2nccs2)cc1Cl)CC(=O)O` [Compound 54, 2-((3-(5-chloro-2-(2-chloro-5-fluoro-4-(N-(thiazol-2-yl)sulfamoyl)phenoxy)phenyl)propyl)(prop-2-yn-1-yl)amino)acetic acid], for which the IC50 in assay [6] was less than 100 nM; in assay [7] it was less than 100 nM; in [1] it was more than 10 µM.
Consider `C#CCN(CCCc1cc(Cl)ccc1Oc1cc(F)c(S(=O)(=O)Nc2cscn2)cc1Cl)CC(=O)O` [Compound 61, 2-((3-(5-chloro-2-(2-chloro-5-fluoro-4-(N-(thiazol-4-yl)sulfamoyl)phenoxy)phenyl)propyl)(prop-2-yn-1-yl)amino)acetic acid], for which the IC50 in assay [1] is more than 10 µM.
`NC(=O)CNCCCc1ccccc1Oc1cc(F)c(S(=O)(=O)Nc2cscn2)cc1Cl` [Compound 60, 2-((3-(2-(2-chloro-5-fluoro-4-(N-(thiazol-4-yl)sulfamoyl)phenoxy)phenyl)propyl)amino)acetamide]: the IC50 in assay [1] is more than 10 µM.
Still for that read-out and setting: under `C#CCN(CCCc1cc(Cl)ccc1Oc1cc(F)c(S(=O)(=O)Nc2nccs2)cc1Cl)CCC(=O)O` [Compound 66, 3-((3-(5-chloro-2-(2-chloro-5-fluoro-4-(N-(thiazol-2-yl)sulfamoyl)phenoxy)phenyl)propyl)(prop-2-yn-1-yl)amino)propanoic acid] stands more than 10 µM.
The same measure, in the same setting: the same measure for `NC(=O)CNCCCc1cc(Cl)ccc1Oc1cc(F)c(S(=O)(=O)Nc2nccs2)cc1Cl` [Compound 63, 2-((3-(5-chloro-2-(2-chloro-5-fluoro-4-(N-(thiazol-2-yl)sulfamoyl)phenoxy)phenyl)propyl)amino)acetamide]: more than 10 µM; for `CN(CCCc1cc(Cl)ccc1Oc1cc(F)c(S(=O)(=O)Nc2cscn2)cc1Cl)CC(=O)O` [Compound 47, 2-((3-(5-chloro-2-(2-chloro-5-fluoro-4-(N-(thiazol-4-yl)sulfamoyl)phenoxy)phenyl)propyl)(methyl)amino)acetic acid]: more than 10 µM.
Consider `NC(=O)CNCCCc1cc(Cl)ccc1Oc1cc(F)c(S(=O)(=O)Nc2cscn2)cc1Cl` [Compound 49, 2-((3-(5-chloro-2-(2-chloro-5-fluoro-4-(N-(thiazol-4-yl)sulfamoyl)phenoxy)phenyl)propyl)amino)acetamide], for which the IC50 in assay [3] was more than 10 µM; in assay [8], more than 10 µM; in assay [4], more than 10 µM; in [5], more than 3 µM. In addition, in assay [9] (60 mg/kg/day for 9 days, after treatment stopped on day 9), the “general appearance and/or health” value is “improvements in general appearance and/or health”. The “food intake compared to the vehicle control group” value in [9] (setting [10]) is “significantly reduced”. Moreover, the “glucose level compared to the vehicle control group” value in assay [9] (setting [10]) is listed as “significantly reduced”. In addition, the “water intake compared to the vehicle control group” value in [9] (setting [10]) was “significantly reduced”.
`CCCN(CCCc1cc(Cl)ccc1Oc1cc(F)c(S(=O)(=O)Nc2nccs2)cc1Cl)CC(=O)O` [Compound 65, 2-((3-(5-chloro-2-(2-chloro-5-fluoro-4-(N-(thiazol-2-yl)sulfamoyl)phenoxy)phenyl)propyl)(propyl)amino)acetic acid]: the IC50 in assay [1] is more than 10 µM.

Usually IC50 stands for the concentration needed to halve the response being measured.

(Values after patent publication US20170304306A1, “SELECTIVE NaV1.7 INHIBITORS FOR THE TREATMENT OF DIABETES” (CHROMOCELL CORPORATION, priority 2014, published 2017).)
